{
  "source": "patent US8598184B2",
  "about": "“Protein kinase inhibitors” (Tiger Pharmatech, priority 2008, dated 2013)",
  "key": {"[1]": {"test": "In vivo pharmacokinetics study in rats, intravenous and oral administration", "design": "species or system male Sprague Dawley rats", "experimental": "The compounds of the present invention were formulated as a solution in a 30:70 (PEG 400:acidified H2O) vehicle. This solution was administered orally (p.o.) at 10 mg/kg and intravenously (i.v.) at 2.5 mg/kg to two distinct groups (n=3) of male Sprague Dawley rats (body weight of 220-250 g). The animals used in the oral dosing group were fasted for 12 hrs before the drug administration. The blood samples were collected via retro-orbital puncture at 0 hour (pre-dose), 0.083, 0.25, 0.5, 1, 2, 4, 6, 8, and 24 hours post-dose. The blood plasma was isolated and HPLC was performed to determine the concentration of the test compounds in blood plasma. Standard set of pharmacokinetic parameters including Area Under the Curves (AUC's), elimination half-lives and bioavailabilities etc. were calculated using FDA certified pharmacokinetic program WinNonlin Professional v5.2 (Pharsight, USA).\nThe bioavailability was calculated as F (%)=(Doseiv×AUCoral(0-∞))/(Doseoral×AUCiv(0-∞))100%. The plasma concentration-time curve of example 5 in male rats following intravenous and oral administration was shown in FIG. 1. Selected pharmacokinetics parameters of example 5 in male rats following intravenous and oral administration were listed in Table 2."}, "[2]": {"test_system": "U87MG glioblastoma tumor xenograft", "settings": "for tumor growth inhibition: Day 12, vs vehicle-treated controls", "experimental": "The U87MG glioblastoma cell line (obtained from Institute of Biochemistry and Cell Biology, Shanghai Institutes for Biological Sciences) expresses the c-Met receptor and responds to […] (HGF). […] The study utilized a tumor growth inhibition (TGI) assay to test per os (p.o.) compound monotherapy in groups of eight nude mice. A control group was treated with a 30:70 (PEG 400:acidified H2O) vehicle. All treatments began on Day 1 (D1) in mice bearing established subcutaneous (s.c.) U87MG tumors.\nFemale athymic nude mice (BALB/cA, Shanghai Laboratories Animal Center, Shanghai, China) were 7-8 weeks old with a body weight range of 19-21 g at the beginning of the study. Food and water were available ad libitum throughout the study. Mice were housed in SPF (Specific Pathogen Free) area of Medicilon/MPI animal facility. Environmental control for the animal room was set to maintain a temperature of 18-25° C., humidity of 30-70%, and a 12-hour light/12-hour dark cycle. Animals had previously been acclimated to study procedures prior to initial dose administration. Animals to be used on test were selected based on overall health and acclimation to caging.\nU-87 MG human glioblastoma cells were purchased from Institute of Biochemistry and Cell Biology, Shanghai Institutes for Biological Sciences. The cells were maintained in vitro Eagle's Minimum Essential Medium supplemented with 10% heat inactivated fetal calf serum. Cells were cultured at 37° C. in an atmosphere of 5% CO2 in air and routinely sub-cultured twice weekly by trypsin-EDTA treatment. Cells in an exponential growth phase were harvested and counted for tumor inoculation. Each test mouse was subcutaneously inoculated with 1×10^7 U87-MG tumor cells in 0.1 ml medium at the right flank of the mouse for tumor model development. During the experiment, the implanted tumors were measured by external caliper every other day in a blind fashion. Nine days later, on Day 1 of the study, mice with well-established tumors (about 150 mm^3) were randomly assigned into 4 groups (n=8 mice/group). Tumor volume was calculated using the formula: Tumor Volume=w^2×l/2 where w=width and l=length in mm of the tumor. Tumor weight may be estimated with the assumption that 1 mg is equivalent to 1 mm^3 of tumor volume.\nIn all groups, the dosing volume of 0.2 mL/20 g mouse was scaled to the body weight of each animal\nThe MTV (n) is defined as the median tumor volume (MTV) for the number of animals, n, remaining in the study on that day. The Median Tumor Growth Volume=Median Tumor Volume−Median Tumor Volumeinitial.\nTumor growth was plotted as the median tumor volume, versus time, for each group in the study. The differences in the tumor size between the treatment groups and the vehicle group are analyzed for significance using the unpaired two-tailed Student's t-test. P<0.05 is considered to be statistically significant."}, "[3]": {"settings": "male rats, IV 2.5 mg/kg, individual animals R 1-R 3"}, "[4]": {"settings": "male rats, PO 10 mg/kg, fasted, individual animals R 4-R 6"}, "[5]": {"settings": "male, Sprague Dawley, rat, plasma, iv, 2.5 mg/kg, IV 2.5 mg/kg, individual animals R 1-R 3"}, "[6]": {"settings": "male, Sprague Dawley, rat, plasma, iv, 2.5 mg/kg, IV 2.5 mg/kg, mean (n=3)"}, "[7]": {"settings": "male, Sprague Dawley, rat, plasma, po, 10 mg/kg, PO 10 mg/kg, fasted, individual animals R 4-R 6"}, "[8]": {"settings": "male, Sprague Dawley, rat, plasma, po, 10 mg/kg, PO 10 mg/kg, fasted, mean (n=3)"}},
  "note": "Where “and” joins values, the source holds several entries; their conditions need not be identical. Equal values may be shown once. Read-outs that look alike come from different tables or passages of the source.",
  "data": [
    {"smiles": "OCCn1cc(-c2ncc3nnn(Cc4ccc5ncccc5c4)c3n2)cn1", "note": "[Example 5, 2-(4-(3-(Quinolin-6-ylmethyl)-3H-[1,2,3]triazolo[4,5-d]pyrimidin-5-yl)-1H-pyrazol-1-yl)ethanol]", "values": [
      {"measurement": "Tmax", "setting": "[1]; Sprague Dawley, rat, plasma, male rats, IV 2.5 mg/kg, individual animals R 1-R 3", "result": 0.08, "unit": "h"},
      {"measurement": "Tmax", "setting": "[1]; Sprague Dawley, rat, plasma, male rats, PO 10 mg/kg, fasted, individual animals R 4-R 6", "result": 2, "unit": "h"},
      {"measurement": "AUC(0-t)", "setting": "[1]; [3]", "result": "5472.46 ng·h/mL and 3451.75 ng·h/mL and 7274.77 ng·h/mL"},
      {"measurement": "AUC(0-∞)", "setting": "[1]; [3]", "result": "3741.58 ng·h/mL and 7310.08 ng·h/mL"},
      {"measurement": "Cmax", "setting": "[1]; [3]", "result": "2417.88 ng/mL and 3019.57 ng/mL"},
      {"measurement": "t1/2", "setting": "[1]; [3]", "result": "2.59 h and 3.23 h"},
      {"measurement": "F % (bioavailability)", "setting": "[1]; male rats, PO 10 mg/kg vs IV 2.5 mg/kg, individual animals R 4-R 6", "result": "70.36% and 72.63%"},
      {"measurement": "AUC(0-t)", "setting": "[1]; [4]", "result": "15454.20 ng·h/mL and 15954.84 ng·h/mL"},
      {"measurement": "AUC(0-∞)", "setting": "[1]; [4]", "result": "15509.49 ng·h/mL and 16010.05 ng·h/mL"},
      {"measurement": "Cmax", "setting": "[1]; [4]", "result": "1505.63 ng/mL and 2299.65 ng/mL"},
      {"measurement": "t1/2", "setting": "[1]; [4]", "result": "2.82 h and 2.98 h"},
      {"measurement": "AUC(0-inf)", "setting": "[1]; [5]", "result": 5480, "unit": "ng·h/mL"},
      {"measurement": "half-life", "setting": "[1]; [5]", "result": 2.62, "unit": "h"},
      {"measurement": "Cmax", "setting": "[1]; male, Sprague Dawley, rat, plasma, iv, 2.5 mg/kg, IV 2.5 mg/kg, individual animals R 1-R 3, read-out: Cmax", "result": 2700, "unit": "ng/mL"},
      {"measurement": "AUC(0-inf)", "setting": "[1]; [6]", "result": 5510, "unit": "ng·h/mL"},
      {"measurement": "half-life", "setting": "[1]; [6]", "result": 2.81, "unit": "h"},
      {"measurement": "AUC(0-t)", "setting": "[1]; male, Sprague Dawley, rat, plasma, iv, 2.5 mg/kg, IV 2.5 mg/kg, mean (n=3), read-out: AUC(0-t)", "result": 5400, "unit": "ng·h/mL"},
      {"measurement": "Cmax", "setting": "[1]; male, Sprague Dawley, rat, plasma, iv, 2.5 mg/kg, IV 2.5 mg/kg, mean (n=3), read-out: Cmax", "result": 2710, "unit": "ng/mL"},
      {"measurement": "bioavailability", "setting": "[1]; male, Sprague Dawley, rat, plasma, po, 10 mg/kg, PO 10 mg/kg vs IV 2.5 mg/kg, individual animals R 4-R 6, read-out: F % (bioavailability)", "result": 79.4, "unit": "%"},
      {"measurement": "bioavailability", "setting": "[1]; male, Sprague Dawley, rat, plasma, po, 10 mg/kg, PO 10 mg/kg vs IV 2.5 mg/kg, mean (n=3), read-out: F % (bioavailability)", "result": 74.1, "unit": "%"},
      {"measurement": "AUC(0-inf)", "setting": "[1]; [7]", "result": 17500, "unit": "ng·h/mL"},
      {"measurement": "half-life", "setting": "[1]; [7]", "result": 2.88, "unit": "h"},
      {"measurement": "AUC(0-t)", "setting": "[1]; male, Sprague Dawley, rat, plasma, po, 10 mg/kg, PO 10 mg/kg, fasted, individual animals R 4-R 6, read-out: AUC(0-t)", "result": 17400, "unit": "ng·h/mL"},
      {"measurement": "Cmax", "setting": "[1]; male, Sprague Dawley, rat, plasma, po, 10 mg/kg, PO 10 mg/kg, fasted, individual animals R 4-R 6, read-out: Cmax", "result": 2540, "unit": "ng/mL"},
      {"measurement": "AUC(0-inf)", "setting": "[1]; [8]", "result": 16300, "unit": "ng·h/mL"},
      {"measurement": "half-life", "setting": "[1]; [8]", "result": 2.89, "unit": "h"},
      {"measurement": "AUC(0-t)", "setting": "[1]; male, Sprague Dawley, rat, plasma, po, 10 mg/kg, PO 10 mg/kg, fasted, mean (n=3), read-out: AUC(0-t)", "result": 16300, "unit": "ng·h/mL"},
      {"measurement": "Cmax", "setting": "[1]; male, Sprague Dawley, rat, plasma, po, 10 mg/kg, PO 10 mg/kg, fasted, mean (n=3), read-out: Cmax", "result": 2110, "unit": "ng/mL"},
      {"measurement": "tumor growth inhibition", "setting": "[2]; 10 mg/kg p.o. once a day (q.d.)", "result": 58, "unit": "%"},
      {"measurement": "tumor growth inhibition", "setting": "[2]; 30 mg/kg p.o. twice a day (b.i.d.)", "result": 70, "unit": "%"},
      {"measurement": "significance of tumor growth inhibition", "setting": "[2]; 40 mg/kg (q.d.) and 30 mg/kg (b.i.d.), from Day 4, p<0.05", "result": "statistically significant tumor growth inhibition"},
      {"measurement": "tumor growth inhibition", "setting": "[2]; 40 mg/kg p.o. once a day (q.d.)", "result": 66, "unit": "%"},
      {"measurement": "significance of tumor growth inhibition", "setting": "[2]; all doses (10, 40 mg/kg q.d., 30 mg/kg b.i.d.), from Day 6, p<0.05", "result": "statistically significant tumor growth inhibition"}
    ]}
  ]
}
